Earlier results as cited in US20240197636A1, “TISSUE-SPECIFIC NUCLEIC ACID DELIVERY BY MIXED CATIONIC LIPID PARTICLES” (OMEGA THERAPEUTICS, INC., priority 2021, published 2024).

- pKa: 6.4
SMILES: CCCCC/C=C\C/C=C\CCCCCCCCC(CCCCCCCC/C=C\C/C=C\CCCCC)OC(=O)CCCN(C)C [MC3, (6Z,9Z,28Z,31Z)-heptatriaconta-6,9,28,31-tetraen-19-yl 4-(dimethylamino) butanoate]
